Reference: ChEMBL document CHEMBL5331140, “Discovery of IACS-52825, a Potent and Selective DLK Inhibitor for Treatment of Chemotherapy-Induced Peripheral Neuropathy” (J Med Chem, 2023)

Tests used:
[1] = Oral bioavailability in Sprague-Dawley rat at 3 mg/kg measured for 24 hrs by LC-MS/MS analysis; assay type: ADME, organism-based; details: in vivo
[2] = Volume of distribution at steady state in Beagle dog at 1 mg/kg, po or 0.3 mg/kg, iv measured for 24 hrs by LC-MS/MS analysis; assay type: ADME, organism-based, Canis lupus familiaris; details: in vivo
[3] = AUClast in Sprague-Dawley rat at 3 mg/kg, po or 1 mg/kg, iv measured for 24 hrs by LC-MS/MS analysis; assay type: ADME, organism-based; parameters: time 24 hrs, dose 3 mg/kg, route po; details: in vivo
[4] = AUClast in C57BL/6 mouse at 10 mg/kg administered via oral gavage and measured for 24 hrs by LC-MS/MS analysis; assay type: ADME, organism-based; parameters: time 24 hrs, dose 10 mg/kg, route po; details: in vivo
[5] = Plasma protein binding in rat at 5 uM incubated for 5 hrs by rapid equilibrium dialysis method; assay type: ADME, cell-free; details: read-out: PPB (converted)
[6] = target: Voltage-gated inwardly rectifying potassium channel KCNH2 (Homo sapiens, UniProt Q12809)
Description: Inhibition of hERG expressed in CHO cells at -80 mV holding potential by QPatch automated electrophysiology assay

[7] = Half life in C57BL/6 mouse at 0.3 mg/kg, iv administered via tail vein and measured for 24 hrs by LC-MS/MS analysis; assay type: ADME, organism-based; details: in vivo
[8] = Cmax in Beagle dog at 1 mg/kg, po or 0.3 mg/kg, iv measured for 24 hrs by LC-MS/MS analysis; assay type: ADME, organism-based, Canis lupus familiaris; parameters: time 24 hrs, dose 1 mg/kg, route po; details: in vivo
[9] = Cmax in C57BL/6 mouse at 10 mg/kg administered via oral gavage and measured for 24 hrs by LC-MS/MS analysis; assay type: ADME, organism-based; parameters: dose 10 mg/kg, time 24 hrs, route po; details: in vivo
[10] = target: T1, Mitogen-activated protein kinase kinase kinase 12 (Homo sapiens, UniProt Q12852); assay: Inhibition of doxycycline-inducible human DLK transfected in HEK293 cells assessed as reduction in c-Jun phosphorylation at Ser63 residue incubated for 5 hrs; assay type: cell-based
T1 sequence (Q12852 whole entry): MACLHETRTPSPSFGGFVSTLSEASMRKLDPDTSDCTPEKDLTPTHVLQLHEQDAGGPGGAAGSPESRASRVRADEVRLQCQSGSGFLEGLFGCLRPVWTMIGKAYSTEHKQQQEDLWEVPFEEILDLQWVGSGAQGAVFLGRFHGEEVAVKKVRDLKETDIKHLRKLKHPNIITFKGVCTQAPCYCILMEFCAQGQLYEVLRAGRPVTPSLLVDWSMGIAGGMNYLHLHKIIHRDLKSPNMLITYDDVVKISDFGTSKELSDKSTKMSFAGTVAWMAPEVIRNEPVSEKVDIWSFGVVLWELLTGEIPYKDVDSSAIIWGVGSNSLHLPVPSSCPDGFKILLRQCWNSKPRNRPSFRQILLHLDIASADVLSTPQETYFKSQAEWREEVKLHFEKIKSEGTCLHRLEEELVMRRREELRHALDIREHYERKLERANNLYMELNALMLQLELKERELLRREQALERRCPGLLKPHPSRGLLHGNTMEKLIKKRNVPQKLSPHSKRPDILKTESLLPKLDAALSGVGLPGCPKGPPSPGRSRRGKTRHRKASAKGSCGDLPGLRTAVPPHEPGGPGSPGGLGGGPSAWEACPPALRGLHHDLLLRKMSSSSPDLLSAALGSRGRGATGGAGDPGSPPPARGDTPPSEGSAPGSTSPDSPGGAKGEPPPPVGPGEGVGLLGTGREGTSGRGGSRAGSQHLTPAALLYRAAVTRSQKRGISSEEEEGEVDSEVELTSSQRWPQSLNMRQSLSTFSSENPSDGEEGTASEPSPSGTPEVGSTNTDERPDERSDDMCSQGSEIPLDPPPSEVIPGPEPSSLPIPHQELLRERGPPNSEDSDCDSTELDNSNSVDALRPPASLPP

[11] = Bioavailability in Beagle dog at 1 mg/kg, po or 0.3 mg/kg, iv measured for 24 hrs by LC-MS/MS analysis; assay type: ADME, organism-based, Canis lupus familiaris; details: in vivo
[12] = Metabolic stability in human hepatocytes assessed as intrinsic clearance at 2 uM measured for 120 mins by LC-MS analysis; assay type: ADME, cell-based, Hepatocyte; details: read-out: CLH
[13] = Cmax in Sprague-Dawley rat at 3 mg/kg, po or 1 mg/kg, iv measured for 24 hrs by LC-MS/MS analysis; assay type: ADME, organism-based; parameters: time 24 hrs, dose 3 mg/kg, route po; details: in vivo
[14] = target: Cytochrome P450 2C9 (Homo sapiens, UniProt P11712); assay: Inhibition of CYP2C9 in human liver microsomes using diclofenac as substrate incubated for 10 mins in presence of NADPH by LC-MS/MS analysis; assay type: ADME, Microsome
[15] = Volume of distribution at steady state in Sprague-Dawley rat at 3 mg/kg, po or 1 mg/kg, iv measured for 24 hrs by LC-MS/MS analysis; assay type: ADME, organism-based; details: in vivo
[16] = Volume of distribution at steady state in cynomolgus monkey at 1 mg/kg, po or 0.3 mg/kg, iv measured for 24 hrs by LC-MS/MS analysis; assay type: ADME, organism-based, Macaca fascicularis; details: in vivo
[17] = target: Cytochrome P450 2C19 (Homo sapiens, UniProt P33261); assay: Inhibition of CYP2C19 in human liver microsomes using S-mephenytoin as substrate incubated for 45 mins in presence of NADPH by LC-MS/MS analysis; assay type: ADME, Microsome
[18] = Toxicity in monkey measured after 7 days by IND-enabling study; parameters: species or system Macaca mulatta; details: rhesus monkey, in vivo, 168 h; time 7 day
[19] = Half life in Sprague-Dawley rat at 3 mg/kg, po or 1 mg/kg, iv measured for 24 hrs by LC-MS/MS analysis; assay type: ADME, organism-based; details: in vivo
[20] = Bioavailability in cynomolgus monkey at 1 mg/kg, po or 0.3 mg/kg, iv measured for 24 hrs by LC-MS/MS analysis; assay type: ADME, organism-based, Macaca fascicularis; details: in vivo
[21] = Permeability in wild type MDCK cells across apical to basolateral side at 5 uM incubated for 90 mins by LC-MS/MS analysis; assay type: ADME, cell-based, Canis lupus familiaris; details: dog, read-out: permeability
[22] = Metabolic stability in rat hepatocytes assessed as intrinsic clearance at 2 uM measured for 120 mins by LC-MS analysis; assay type: ADME, cell-based, Hepatocyte; details: read-out: CLH
[23] = Toxicity in rat measured after 14 days by IND-enabling study; details: in vivo, 336 h, time 14 day
[24] = Metabolic stability in mouse hepatocytes assessed as intrinsic clearance at 2 uM measured for 120 mins by LC-MS analysis; assay type: ADME, cell-based, Hepatocyte; details: read-out: CLH
[25] = Permeability in MDCK-MDR1 cells across basolateral to apical side at 5 uM incubated for 90 mins by LC-MS/MS analysis; assay type: ADME, cell-based, Canis lupus familiaris; details: dog, read-out: permeability
[26] = Plasma protein binding in monkey at 5 uM incubated for 5 hrs by rapid equilibrium dialysis method; assay type: ADME, cell-free, Macaca mulatta; details: rhesus monkey, read-out: PPB (converted)
[27] = Plasma protein binding in human at 5 uM incubated for 5 hrs by rapid equilibrium dialysis method; assay type: ADME, cell-free; details: read-out: PPB
[28] = Volume of distribution at steady state in C57BL/6 mouse at 0.3 mg/kg, iv administered via tail vein and measured for 24 hrs by LC-MS/MS analysis; assay type: ADME, organism-based; details: in vivo, read-out: Vdss
[29] = target: Cytochrome P450 2D6 (Homo sapiens, UniProt P10635); assay: Inhibition of CYP2D6 in human liver microsomes using bufuralol as substrate incubated for 10 mins in presence of NADPH by LC-MS/MS analysis; assay type: ADME, Microsome
[30] = Cmax in cynomolgus monkey at 1 mg/kg, po or 0.3 mg/kg, iv measured for 24 hrs by LC-MS/MS analysis; assay type: ADME, organism-based, Macaca fascicularis; parameters: dose 1 mg/kg, time 24 hrs, route po; details: in vivo

Cytochrome P450 2C19, sequence (P33261 whole entry): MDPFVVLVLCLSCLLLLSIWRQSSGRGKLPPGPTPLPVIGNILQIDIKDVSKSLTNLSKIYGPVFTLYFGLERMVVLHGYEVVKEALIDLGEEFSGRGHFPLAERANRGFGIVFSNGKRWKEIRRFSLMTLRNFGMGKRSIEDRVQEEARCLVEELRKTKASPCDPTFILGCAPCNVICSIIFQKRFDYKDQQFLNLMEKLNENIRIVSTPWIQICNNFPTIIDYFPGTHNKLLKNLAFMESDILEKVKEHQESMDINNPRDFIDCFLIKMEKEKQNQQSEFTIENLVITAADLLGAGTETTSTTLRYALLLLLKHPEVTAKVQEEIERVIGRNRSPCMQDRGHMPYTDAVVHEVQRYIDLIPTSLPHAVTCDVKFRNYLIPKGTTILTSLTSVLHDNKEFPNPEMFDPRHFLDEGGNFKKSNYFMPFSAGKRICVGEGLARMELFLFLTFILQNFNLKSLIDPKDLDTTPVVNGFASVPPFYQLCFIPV
Voltage-gated inwardly rectifying potassium channel KCNH2, sequence (Q12809 whole entry): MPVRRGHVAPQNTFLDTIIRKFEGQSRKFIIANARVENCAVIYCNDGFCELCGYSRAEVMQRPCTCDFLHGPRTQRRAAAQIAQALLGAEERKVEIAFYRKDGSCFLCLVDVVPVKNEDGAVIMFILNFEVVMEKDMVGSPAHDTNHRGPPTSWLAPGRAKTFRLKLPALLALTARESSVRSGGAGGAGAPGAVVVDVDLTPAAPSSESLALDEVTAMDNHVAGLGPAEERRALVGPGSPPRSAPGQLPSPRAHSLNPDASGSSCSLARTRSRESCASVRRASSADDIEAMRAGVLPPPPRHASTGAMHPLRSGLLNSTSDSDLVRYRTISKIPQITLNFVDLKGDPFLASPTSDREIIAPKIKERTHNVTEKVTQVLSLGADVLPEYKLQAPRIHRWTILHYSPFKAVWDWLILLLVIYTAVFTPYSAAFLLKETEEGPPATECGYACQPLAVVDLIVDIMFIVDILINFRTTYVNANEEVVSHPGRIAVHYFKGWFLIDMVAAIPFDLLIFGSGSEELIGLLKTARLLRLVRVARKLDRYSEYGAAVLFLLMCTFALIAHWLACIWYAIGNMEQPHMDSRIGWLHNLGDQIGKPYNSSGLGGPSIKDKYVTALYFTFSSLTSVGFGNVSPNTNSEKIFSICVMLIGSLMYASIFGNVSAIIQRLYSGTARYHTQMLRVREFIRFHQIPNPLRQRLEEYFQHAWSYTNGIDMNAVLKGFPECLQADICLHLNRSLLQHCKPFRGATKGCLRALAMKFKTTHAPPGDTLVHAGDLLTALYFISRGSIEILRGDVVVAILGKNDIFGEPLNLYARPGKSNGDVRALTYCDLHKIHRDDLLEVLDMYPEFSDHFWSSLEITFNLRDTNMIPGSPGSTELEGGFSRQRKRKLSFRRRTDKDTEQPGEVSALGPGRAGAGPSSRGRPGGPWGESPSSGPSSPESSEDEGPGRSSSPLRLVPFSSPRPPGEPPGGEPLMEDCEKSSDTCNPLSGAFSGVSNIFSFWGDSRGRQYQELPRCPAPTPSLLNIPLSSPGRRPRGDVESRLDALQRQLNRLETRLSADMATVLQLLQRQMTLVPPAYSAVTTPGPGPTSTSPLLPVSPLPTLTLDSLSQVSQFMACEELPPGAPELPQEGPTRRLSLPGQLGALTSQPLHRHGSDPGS
Cytochrome P450 2C9, sequence (P11712 whole entry): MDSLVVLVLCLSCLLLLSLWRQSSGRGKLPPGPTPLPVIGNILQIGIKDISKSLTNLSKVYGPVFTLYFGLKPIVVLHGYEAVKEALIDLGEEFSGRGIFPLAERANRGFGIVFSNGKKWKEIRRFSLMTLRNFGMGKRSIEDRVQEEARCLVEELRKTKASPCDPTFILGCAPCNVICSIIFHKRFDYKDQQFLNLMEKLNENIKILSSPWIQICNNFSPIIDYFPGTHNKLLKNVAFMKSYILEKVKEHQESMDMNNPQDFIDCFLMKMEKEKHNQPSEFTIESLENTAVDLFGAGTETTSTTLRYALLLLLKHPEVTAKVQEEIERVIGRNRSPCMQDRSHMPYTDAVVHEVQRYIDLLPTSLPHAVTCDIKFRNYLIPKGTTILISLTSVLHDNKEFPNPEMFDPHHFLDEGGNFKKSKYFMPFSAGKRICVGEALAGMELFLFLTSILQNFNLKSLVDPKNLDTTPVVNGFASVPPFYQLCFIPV
Cytochrome P450 2D6, sequence (P10635 whole entry): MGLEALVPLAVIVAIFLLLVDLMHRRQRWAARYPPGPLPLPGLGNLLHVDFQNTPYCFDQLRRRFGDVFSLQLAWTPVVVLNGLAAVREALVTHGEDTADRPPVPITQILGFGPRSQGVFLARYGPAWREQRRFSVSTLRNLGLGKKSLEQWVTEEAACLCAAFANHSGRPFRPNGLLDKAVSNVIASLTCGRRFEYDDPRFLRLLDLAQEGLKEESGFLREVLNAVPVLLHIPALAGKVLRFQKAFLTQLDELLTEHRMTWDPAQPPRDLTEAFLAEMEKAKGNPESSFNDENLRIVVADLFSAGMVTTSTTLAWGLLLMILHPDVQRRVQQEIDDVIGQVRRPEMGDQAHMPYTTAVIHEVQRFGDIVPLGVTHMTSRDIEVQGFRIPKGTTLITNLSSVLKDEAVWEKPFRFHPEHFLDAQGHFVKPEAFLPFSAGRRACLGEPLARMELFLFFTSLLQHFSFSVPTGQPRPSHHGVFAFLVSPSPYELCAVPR

bioavailability [1]: 95%
Vdss [2]: 3.5 L/kg
AUC(0-t) at 24 h [3]: 16.8 µM·h
AUClast [4]: 111 µM·h
fraction unbound at 5 h, 5 µM [5]: 0.118
half-life [7]: 13 h
Cmax [8]: 1200 nM
Cmax [9]: 6400 nM
IC50 [10]: 0.107 µM
bioavailability [11]: > 100%
CLint scaled at 2 µM [12]: 11 mL/min/kg
Cmax [13]: 1300 nM
IC50 [14]: > 10 µM
Vdss [15]: 5.6 L/kg
Vdss [16]: 5.3 L/kg
IC50 [17]: > 10 µM
half-life [19]: 12 h
bioavailability [20]: > 100%
Papp A→B at 1.5 h, 5 µM [21]: 38 ×10⁻⁶ cm/s
CLint scaled at 2 µM [22]: 4.4 mL/min/kg
CLint scaled at 2 µM [24]: 2.5 mL/min/kg
Papp B→A at 1.5 h, 5 µM [25]: 43 ×10⁻⁶ cm/s
fraction unbound at 5 h, 5 µM [26]: 0.139
fraction unbound at 5 h, 5 µM [27]: 0.091
Vd [28]: 4.5 L/kg
IC50 [29]: > 10 µM
Cmax [30]: 350 nM
SMILES: Nc1ncc(-c2cn(C34CC(F)(C3)C4)c([C@@H](O)C(F)(F)F)n2)cc1OC(F)(F)F
IC50 [6]: > 30 µM
Activity [18]: Non-Toxic
Activity [23]: Non-Toxic
